Test results published in patent publication US7696408B2, “Method to enhance Agrobacterium-mediated transformation of plants” (Regents of the University of Minnesota, priority 1999, dated 2010).
Entries after “also recorded” stand apart in the source; their conditions may differ.

Tests used:
[1] = test system: soybean cot-node explants; assay: GUS transient expression on soybean cot-node explants after 5-day co-cultivation with Agrobacterium (T-DNA delivery); format: cell-based, Glycine max
From the text: For each seedling, the roots and the majority of the hypocotyl were removed approximately 3-5 mm below the cotyledonary node by cutting the hypocotyl with a scalpel (Hinchee et al., 1998). The two cotyledons were then separated by cutting vertically through the hypocotyl region resulting in two explants. The epicotyl was subsequently removed on both explants, including all primary leaves and shoot meristems, and both the axillary bud and cotyledonary node were wounded by cutting about 10 times with a scalpel blade perpendicular to the hypocotyl. After all explants in a set were wounded (about 50), they were placed in a 25×100 mm petri plate containing 50 ml co-culture suspension for 30 minutes or inoculated into the 25 ml co-cultivation/Agrobacterium suspension for 30 minutes. The explants were then cultured on an agar-solidified co-culture media (0.5%) either without the addition of a test agent (e.g., cysteine) in 15×100 mm petri plates on top a sterile Whatman®#1 filter paper; five explants per plate with adaxial side down. Five plates were stacked together and wrapped in Parafilm®M then incubated at either 22° C. or 25° C. for 5 days in the dark.
After 5 days, the explants were washed in a liquid shoot induction media (B5 salts, MSIII iron stock, 3% sucrose, 3 mM MES, and filter sterilized B5 vitamins, 1.67 mg/l BAP, 100 mg/l cefotaxime, and 500 mg/l ticarcillin; pH 5.6) to remove excess Agrobacterium. Seven to ten explants from each cysteine level were washed in liquid shoot induction medium and placed in GUS histochemical stain (Jefferson et al., 1987). These explants were scored for GUS transient expression. Five to ten explants from each group were imbedded into a single 25×100 mm petri plate with solid shoot induction media (0.8% agar and agent, e.g., 400 mg/l cysteine) containing PPT concentrations of 1.33 mg/l, 3.33 mg/l, or 5.0 mg/l for selection. The plates were then incubated in a growth chamber with a fluctuating temperature between 18° C.-30° C. under a 18 hours light/6 hours dark cycle at 90-150 μE/m^2s.
The level of infection was scored using the GUS gene as a phenotypic marker immediately after co-culture and again after 4 weeks in shoot induction media. As it can be difficult to score the explants after co-cultivation due to the variation among explants and, in some cases, a complete staining of the target tissues, 6 categories were formed to assess the success of infection: • 4) None=There were no GUS positive sectors on any of the explants; • 5) Very low=Not all explants have GUS positive sectors, however, some have discrete foci usually seen on the hypocotyl or cot-node region. • 6) Low=More than ¾ the explants have GUS positive sectors in discrete foci on the hypocotyl and the cot-node region, but the foci are not numerous (<20). • 7) Medium=More than ½ the explants have significant GUS positive sectors at the cot-node region and hypocotyl, some seen as long lines of cells or larger sectors. • 8) Good=More than ¾ the explants have significant staining at the hypocotyl, the entire cot-node region, and on the cotyledons. […] Almost all explants have regions that are completely GUS positive. To reduce bias, samples were chosen at random and the level of infection scored before noting the treatment conditions. Samples that were between two categories are marked accordingly; those samples that resembled one category more than another were marked with a capital “X” and the other with a lowercase “x”.
Wounded soybean cot-node explants prepared from the cultivar ‘Bert’ were co-cultivated with Agrobacterium on solid co-cultivation medium containing various levels of cysteine for 5 days.

[2] = test system: soybean cot-node explants; assay: as above; format: cell-based, Glycine max; remark: listed apart in the source

N[C@@H](CS)C(=O)O [L-cysteine]
infection, cysteine in solid co-culture media (experiments #4-#6) ([1]; 0 or 400 mg/l cysteine in liquid and solid co-culture media): increased infection | average frequency of explants containing a GUS+ focus at the cot-node ([1]; 300 to 1000 mg/l cysteine in solid co-cultivation medium, Bert, AGL1 pBSF16, 5 days, 30% with no cysteine): ~100% | GUS staining scores, difference from 0 mg/l cysteine ([1]; 400 and 1000 mg/l cysteine, α=0.05 (P<0.001)): significantly differ | frequency of explants with at least one GUS+ focus, difference from 0 mg/l cysteine ([1]; 400 and 1000 mg/l cysteine, α=0.05 (P<0.001), FIG. 1D): significantly differ | frequency of explants with GUS+ foci at the cot-node, all genotypes ([1]; 5 days co-cultivation, MN0901, A3237, MN1801, MN0301, Granite, MN1401, MN1301, Lambert): increase | GUS+ staining after co-cultivation ([1]; Bert, LBA4404 pTOK233, agent in solid co-cultivation media, concentrations of Table 1, 5-day incubation): increases | infection (% of explants) at the entire cot-node region ([1]; after 5-day incubation, cysteine containing solid co-culture media (100-400 mg/l L-cysteine), genotypes Bert, MN1301, MN0901, 50% of control explants): 80-100% | GUS+ foci at the 5-day interval ([1]; amended to solid co-cultivation media): increase | number of GUS+ foci per explant five days post-inoculation ([1]; cysteine 400-1000 mg/l, eight independent experiments): increase | frequency of GUS positive sectors/foci with strain LBA4404 pTOK233 ([1]; cysteine during co-cultivation vs control, 5 days): exceed in the frequency of GUS positive sectors over the control explants; also recorded: greater | GUS positive sectors after co-cultivation (experiments #1-#3) ([1]; cysteine, especially 300 and 400 mg/l, MN1301, MN0901, Bert): extensive GUS positive sectors | frequency of explants with at least one GUS+ focus at the cot-node ([1]; five days post-inoculation, cysteine 400-1000 mg/l, eight independent experiments, 30% without): 100% | infection in genotypes that respond poorly to the cot-node method ([2]; 400 mg/l cysteine, MN1401, Granite, Lambert, MN1801, MN0301): significant increase in infection | GUS+ foci on 5 day explants, cysteine only in liquid media ([2]; cysteine added only to liquid Agrobacterium culture (YEP) or liquid co-cultivation medium): did not increase; also recorded: no increases detected
